Our source for the IC50 and EC50 values is patent publication US11970502B2, “Macrocyclic antiviral agents” (Enanta Pharmaceuticals, Inc., priority 2021, dated 2024).

The target of one test is SARS-CoV-2 3CL-protease (Severe acute respiratory syndrome coronavirus 2, UniProt P0DTD1). Description: biochemical.
Test [1] has as its system 229E human corona virus (hCoV). Description: 229E Cellular Assay (MRC5), 229E live virus assay, ATPlite readout. Type of test: cell-based, hCoV-229E.
Where [2] appears, read: recombinant 3CL-protease 10 nM, substrate 40 μM, 30 min preincubation at RT, read-out: FRET IC50.
Where [3] appears, read: Human coronavirus 229E, MRC5, 144 h; read-out: EC50 (229E).

Each structure is given as a SMILES string. Where two headings read alike, the source gives them in different places.

Turning to `CC(C)C[C@H]1C(=O)N[C@H](C#N)C[C@@H]2C[C@@H](CCCCc3nc(-c4ccccc4Cl)oc3N1C)NC2=O` [Example 6], the IC50 at SARS-CoV-2 3CL-protease (setting [2]) was in the range of 100 to 1000 nM. In test [1] (setting [3]), the EC50 lay in the range of 100 to 1000 nM.

In turn, `CC(C)C[C@H]1C(=O)N[C@H](C#N)C[C@@H]2C[C@@H](C/C=C/C[C@H](NC(=O)OC(C)(C)C)C(=O)N1C)NC2=O` [Example 1] displayed a 50% inhibitory concentration (IC50) against SARS-CoV-2 3CL-protease of 100 to 1000 nM. Further, in test [1] (Human coronavirus 229E, MRC5, 144 h, read-out: EC50 (229E)), the half-maximal effective concentration (EC50) was above 1000 nM.

In the case of `CC(C)C[C@H]1C(=O)N[C@H](C#N)C[C@@H]2C[C@@H](CCCC[C@H](NC(=O)c3ccccn3)C(=O)N1C)NC2=O` [Example 4], at SARS-CoV-2 3CL-protease (setting [2]), the IC50 was below 100 nM. Moreover, the concentration giving a half-maximal response (EC50) in test [1] (setting [3]) was above 1000 nM.

With `CC(C)C[C@H]1C(=O)N[C@H](C#N)C[C@@H]2C[C@@H](CCCC[C@H](NC(=O)c3cc4c(F)cc(F)c(F)c4[nH]3)C(=O)N1C)NC2=O` [Example 5], at SARS-CoV-2 3CL-protease (setting [2]), the IC50 lay within 100 to 1000 nM. Besides, in test [1] (setting [3]), the EC50 was above 1000 nM.

As to `CC(C)C[C@H]1C(=O)N[C@H](C#N)C[C@@H]2C[C@@H](CCCC[C@H](NC(=O)c3ccccc3Cl)C(=O)N1C)NC2=O` [Example 3], the concentration for half-maximal inhibition (IC50) at SARS-CoV-2 3CL-protease (setting [2]) was below 100 nM. The EC50 in test [1] (setting [3]) was 100 to 1000 nM.

For the molecule `CC(C)C[C@H]1C(=O)N[C@H](C#N)C[C@@H]2C[C@@H](CCCC[C@H](NC(=O)OC(C)(C)C)C(=O)N1C)NC2=O` [Example 2], the concentration for half-maximal inhibition (IC50) at SARS-CoV-2 3CL-protease (setting [2]) is below 100 nM. In addition, the EC50 in test [1] (Human coronavirus 229E, MRC5, 144 h; MRC-5 cells, hCoV-229E MOI 0.05, 6 days at 34° C., ATPlite; read-out: EC50 (229E)) is above 1000 nM.
